Data as given in US9090599B2, “Heteroarylmethyl amides” (Hoffman-La Roche Inc., priority 2010, dated 2015).
Like-named read-outs stand apart in the source and are kept apart here.

Key:
human CB2 receptor = biological target: T1, human CB2 receptor (Homo sapiens, UniProt P34972); experiment: CB2 receptor affinity, [3H]-CP-55,940 displacement, HEK cell membranes; type: binding; details: 10 μM compound, radioligand [3H]-CP-55,940
T1 construct: expressed in transfected cells; host or cells: human embryonic kidney (HEK) cells, Semliki Forest Virus system, membrane preparations
Experimental: (§1) The affinity of the compounds of the invention for cannabinoid CB2 receptors was determined using membrane preparations of human embryonic kidney (HEK) cells in which the human CB2 receptor is transiently transfected using a Semliki Forest Virus system in conjunction with [^3H]-CP-55,940 as radioligand. After incubation of freshly prepared cell membrane preparation with the [^3H]-ligand, with or without addition of compounds of the invention, separation of bound and free ligand was performed by filtration over glass fiber filters. Radioactivity on the filter was measured by scintillation counting.
(§2) The ability of the compounds to displace the radioligand [^3H]-CP-55,940 was measured at a concentration of 10 μM and values provided as [% inhibition @ 10 μM] both for the CB 1 and CB2 receptor assay, The lower % inhibition is, the lower the likelihood of side effects based on CB1 or CB2 receptor inhibition is.

human CB1 receptor = biological target: T2, human CB1 receptor (Homo sapiens, UniProt P21554); experiment: CB1 receptor affinity, [3H]-CP-55,940 displacement, HEK cell membranes; type: binding; details: read-out: CB1 receptor affinity [% inhibition @ 10 μM]
T2 construct: expressed in transfected cells; host or cells: human embryonic kidney (HEK) cells, Semliki Forest Virus system, membrane preparations
Experimental: as §1, with “cannabinoid” for “cannabinoid CB2”, “CB1” for “CB2”, “[3H]-CP-55,940” for “[^3H]-CP-55,940”
as §2

[1] = 10 μM compound, radioligand [3H]-CP-55,940

T2 sequence (P21554 whole entry): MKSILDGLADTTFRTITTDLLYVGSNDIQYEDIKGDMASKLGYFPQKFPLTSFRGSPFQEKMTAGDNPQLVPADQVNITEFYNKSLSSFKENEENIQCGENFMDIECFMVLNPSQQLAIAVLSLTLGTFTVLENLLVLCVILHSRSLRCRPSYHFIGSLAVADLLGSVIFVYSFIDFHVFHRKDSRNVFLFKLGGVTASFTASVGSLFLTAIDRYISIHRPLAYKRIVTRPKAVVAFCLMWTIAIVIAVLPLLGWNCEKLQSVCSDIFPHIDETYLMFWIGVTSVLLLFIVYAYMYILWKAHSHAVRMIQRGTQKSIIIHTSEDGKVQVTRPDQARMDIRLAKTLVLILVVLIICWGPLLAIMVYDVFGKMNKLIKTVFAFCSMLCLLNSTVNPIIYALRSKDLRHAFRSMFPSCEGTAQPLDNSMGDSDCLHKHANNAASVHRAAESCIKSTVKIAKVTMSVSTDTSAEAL
T1 sequence (P34972 whole entry): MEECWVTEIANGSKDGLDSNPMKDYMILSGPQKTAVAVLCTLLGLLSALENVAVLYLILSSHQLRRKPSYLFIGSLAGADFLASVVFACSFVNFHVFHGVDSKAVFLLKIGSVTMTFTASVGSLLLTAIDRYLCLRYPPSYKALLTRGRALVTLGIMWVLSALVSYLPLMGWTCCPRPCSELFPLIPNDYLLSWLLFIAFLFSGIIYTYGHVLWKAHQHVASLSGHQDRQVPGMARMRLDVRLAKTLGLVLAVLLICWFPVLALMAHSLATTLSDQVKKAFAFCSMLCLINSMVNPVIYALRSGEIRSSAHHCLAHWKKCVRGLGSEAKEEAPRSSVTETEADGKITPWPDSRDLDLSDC

inhibition at 10 µM (human CB2 receptor) [%]	inhibition at 10 µM (human CB1 receptor; [1]) [%]	SMILES	inhibition at 10 µM (human CB1 receptor) [%]
28	28	CCc1nc(CNC(=O)c2cnc(OCC3CC3)c(-c3ccc(Cl)cc3)c2)cs1 [Example 10, 5-(4-chloro-phenyl)-6-cyclopropylmethoxy-N-(2-ethyl-thiazol-4-ylmethyl)-nicotinamide]	
32	38	O=C(NCc1coc(C2CC2)n1)c1ccc(OCC2CC2)c(-c2ccc(Cl)cc2)n1 [Example 56, 6-(4-chloro-phenyl)-5-cyclopropylmethoxy-pyridine-2-carboxylic acid (2-cyclopropyl-oxazol-4-ylmethyl)-amide]	
21	49	O=C(NCc1nc(C(F)(F)F)no1)c1cnc(OCC(F)(F)F)c(-c2ccc(Cl)cc2F)c1 [Example 84, 5-(4-chloro-2-fluorophenyl)-6-(2,2,2-trifluoroethoxy)-N-((3-(trifluoromethyl)-1,2,4-oxadiazol-5-yl)methyl)nicotinamide]	
	18	CC(C)(C)c1nc(CNC(=O)c2cc(-c3ccc(Cl)cc3)c(OCC(F)(F)F)nn2)cs1 [Example 65, 5-(4-chloro-phenyl)-6-(2,2,2-trifluoro-ethoxy)-pyridazine-3-carboxylic acid (2-tert-butyl-thiazol-4-ylmethyl)-amide]	
8	45	COCCOc1ncc(C(=O)NCc2nc(C(F)(F)F)no2)cc1-c1ccc(F)c(F)c1 [Example 96, 5-(3,4-difluorophenyl)-6-(2-methoxyethoxy)-N-((3-(trifluoromethyl)-1,2,4-oxadiazol-5-yl)methyl)nicotinamide]	
5	17	Cc1ccc(-c2cc(C(=O)NCc3nc(C(F)(F)F)no3)ncc2OCC(F)(F)F)cc1C [Example 78, 4-(3,4-dimethylphenyl)-5-(2,2,2-trifluoroethoxy)-N-((3-(trifluoromethyl)-1,2,4-oxadiazol-5-yl)methyl)picolinamide]	
-2	44	CCc1ccc(-c2cc(C(=O)NCc3nc(C(F)(F)F)no3)cnc2OCC(F)(F)F)cc1 [Example 83, 5-(4-ethylphenyl)-6-(2,2,2-trifluoroethoxy)-N-((3-(trifluoromethyl)-1,2,4-oxadiazol-5-yl)methyl)nicotinamide]	
22	50	C[C@H](Oc1cnc(C(=O)NCc2nc(C(F)(F)F)no2)nc1-c1ccc(Cl)cc1)C(F)(F)F [Example 35, (S)-4-(4-chlorophenyl)-N-((3-(trifluoromethyl)-1,2,4-oxadiazol-5-yl)methyl)-5-(1,1,1-trifluoropropan-2-yloxy)pyrimidine-2-carboxamide]	
14	36	C[C@H](Oc1ncc(C(=O)NCc2nc(C(F)(F)F)no2)nc1-c1ccc(Cl)cc1)C(F)(F)F [Example 36, (S)-6-(4-chlorophenyl)-N-((3-(trifluoromethyl)-1,2,4-oxadiazol-5-yl)methyl)-5-(1,1,1-trifluoropropan-2-yloxy)pyrazine-2-carboxamide]	
11	48	O=C(NCc1ccn(CC2CC2)n1)c1cnc(OCC(F)(F)F)c(-c2ccc(Cl)cc2)c1 [Example 88, 5-(4-chlorophenyl)-N-((1-(cyclopropylmethyl)-1H-pyrazol-3-yl)methyl)-6-(2,2,2-trifluoroethoxy)nicotinamide]	
24	47	O=C(NCc1nc(C(F)(F)F)no1)c1cnc(O[C@@H]2CCOC2)c(-c2ccc(Cl)cc2)c1 [Example 103, (R)-5-(4-chlorophenyl)-6-(tetrahydrofuran-3-yloxy)-N-((3-(trifluoromethyl)-1,2,4-oxadiazol-5-yl)methyl)nicotinamide]	

Continued, molecule first:

SMILES	inhibition at 10 µM (human CB2 receptor) [%]	inhibition at 10 µM (human CB1 receptor; [1]) [%]	inhibition at 10 µM (human CB1 receptor) [%]
COc1cc(CNC(=O)c2cc(-c3ccc(C)c(Cl)c3)c(OCC(F)(F)F)cn2)on1 [Example 73, 4-(3-chloro-4-methylphenyl)-N-((3-methoxyisoxazol-5-yl)methyl)-5-(2,2,2-trifluoroethoxy)picolinamide]	45		22
O=C(NCc1csc(C2CC2)n1)c1ccc(OCC2CC2)c(-c2ccc(Cl)cc2)n1 [Example 57, 6-(4-chloro-phenyl)-5-cyclopropylmethoxy-pyridine-2-carboxylic acid (2-cyclopropyl-thiazol-4-ylmethyl)-amide]	36		31
CC(C)c1cc(CNC(=O)c2cnc(OCC3CC3)c(-c3ccc(Cl)cc3)c2)no1 [Example 32, 5-(4-chlorophenyl)-6-(cyclopropylmethoxy)-N-((5-isopropylisoxazol-3-yl)methyl)nicotinamide]	26	47	
O=C(NCc1nc(C(F)(F)F)no1)c1cnc(OCC2CC2)c(-c2ccc(F)c(F)c2)c1 [Example 95, 6-(cyclopropylmethoxy)-5-(3,4-difluorophenyl)-N-((3-(trifluoromethyl)-1,2,4-oxadiazol-5-yl)methyl)nicotinamide]	21	39	
COCCOc1ncc(C(=O)NCc2nc(C(F)(F)F)no2)cc1-c1ccc(Cl)c(C)c1 [Example 98, 5-(4-chloro-3-methylphenyl)-6-(2-methoxyethoxy)-N-((3-(trifluoromethyl)-1,2,4-oxadiazol-5-yl)methyl)nicotinamide]	16	41	
CC(C)(C)c1nc(CNC(=O)c2cc(-c3ccc(Cl)cc3)c(OCC3CC3)cn2)cs1 [Example 54, N-((2-tert-butylthiazol-4-yl)methyl)-4-(4-chlorophenyl)-5-(cyclopropylmethoxy)picolinamide]	12	20	
O=C(NCc1nc(C(F)(F)F)no1)c1ncc(OCC(F)(F)F)c(-c2ccc(Cl)cc2)n1 [Example 16, 4-(4-chloro-phenyl)-5-(2,2,2-trifluoro-ethoxy)-pyrimidine-2-carboxylic acid (3-trifluoromethyl-[1,2,4]oxadiazol-5-ylmethyl)-amide]	15	38	
COc1cc(CNC(=O)c2cc(-c3ccc(Cl)cc3)c(O[C@@H](C)C(F)(F)F)cn2)on1 [Example 37, (S)-4-(4-chlorophenyl)-N-((3-methoxyisoxazol-5-yl)methyl)-5-(1,1,1-trifluoropropan-2-yloxy)picolinamide]	20	40	
O=C(NCc1nc(C(F)(F)F)no1)c1cnc(OC2CCC2)c(-c2ccc(Cl)cc2)c1 [Example 92, 5-(4-chlorophenyl)-6-cyclobutoxy-N-((3-(trifluoromethyl)-1,2,4-oxadiazol-5-yl)methyl)nicotinamide]	9	43	
O=C(NCc1cc(C(F)(F)F)on1)c1cc(-c2ccc(Cl)cc2)c(OCC(F)(F)F)cn1 [Example 45, 4-(4-chlorophenyl)-5-(2,2,2-trifluoroethoxy)-N-((5-(trifluoromethyl)isoxazol-3-yl)methyl)picolinamide]	-2		37
COCCOc1ncc(C(=O)NCc2nc(C(F)(F)F)no2)cc1-c1ccc(Cl)c(F)c1 [Example 97, 5-(4-chloro-3-fluorophenyl)-6-(2-methoxyethoxy)-N-((3-(trifluoromethyl)-1,2,4-oxadiazol-5-yl)methyl)nicotinamide]	25		48
O=C(NCc1cc(C2CC2)no1)c1cc(-c2ccc(Cl)cc2)c(OCC(F)(F)F)cn1 [Example 33, 4-(4-chlorophenyl)-N-((3-cyclopropylisoxazol-5-yl)methyl)-5-(2,2,2-trifluoroethoxy)picolinamide]	26	33	
O=C(NCc1noc(C2CC2)n1)c1ncc(OCC2CC2)c(-c2ccc(Cl)cc2)n1 [Example 13, 4-(4-chloro-phenyl)-5-cyclopropylmethoxy-pyrimidine-2-carboxylic acid (5-cyclopropyl-[1,2,4]oxadiazol-3-ylmethyl)-amide]	46	35	
CC(C)c1nc(CNC(=O)c2cc(-c3ccc(Cl)cc3)c(OCC(F)(F)F)cn2)no1 [Example 39, 4-(4-chlorophenyl)-N-((5-isopropyl-1,2,4-oxadiazol-3-yl)methyl)-5-(2,2,2-trifluoroethoxy)picolinamide]	21	26	
O=C(NCc1nc(C(F)(F)F)no1)c1cnc(OCC(F)(F)F)c(-c2ccc(Cl)c(F)c2)c1 [Example 82, 5-(4-chloro-3-fluorophenyl)-6-(2,2,2-trifluoroethoxy)-N-((3-(trifluoromethyl)-1,2,4-oxadiazol-5-yl)methyl)nicotinamide]	27	30	
O=C(NCc1cc(C2CC2)no1)c1cc(-c2ccc(Cl)cc2)c(OCC(F)(F)F)nn1 [Example 49, 5-(4-Chloro-phenyl)-6-(2,2,2-trifluoro-ethoxy)-pyridazine-3-carboxylic acid (3-cyclopropyl-isoxazol-5-ylmethyl)-amide]	13	36	
